Laboratory results published in publication PMC4929566, “The metabolome of [2-^14C](−)-epicatechin in humans: implications for the assessment of efficacy, safety, and mechanisms of action of polyphenolic bioactives” (Scientific Reports, 2016).
Where “and” joins values, the source holds several entries; their conditions need not be identical. Equal entries are not always repeated.

Assays:
[1] = SREM profile in plasma after intragastric 14C-EC, mouse; type: in vivo, C57BL/6 mice; conditions: 30 min after 2 mg/kg BW intragastric 14C-EC
Description: (§1) To assess the profile of SREMs in rodents, Sprague-Dawley rats (male, 9–10 week old, 270 ± 16 g of BW) and C57BL/6 mice (20 ± 1 g) were administered by gavage 2 mg/kg BW of ^14C-EC (corresponding to ≈10.6 μCi/rat and 6.7 μCi/mouse). Blood samples were collected 30 min after administration. Plasma was obtained by centrifugation at 4 °C for 15 min at 1800xg, separated in aliquots and analyzed by HPLC as described previously[18] with an on-line radioactivity detector (Radiomatic 610TR Flow System Analyzer, PerkinElmer, Inc., Waltham, Mass).

[2] = Metabolite profiling and quantification in urine (HPLC-MS2 with on-line radioactivity detector); type: in vivo, humans; conditions: human
Description: (§2) The study was a single-center, open-label, and non-randomized study with two distinct elements: a run-in phase to establish a more defined dietary background of dietary flavanols and procyanidins and the subsequent ^14C-EC ADME study (Fig. 1B). Participants (n = 12) were enrolled in the run-in phase (day –17 to day –4) and asked to supplement their daily diet for 14 days with a commercially available flavanol-containing cocoa-based drink (250 mg cocoa flavanols; 40 mg of EC). This was followed by a 4-day period (day –4 to 0) of a low-flavanol diet. One day (study day -1) prior to the initialization of the ^14C-EC ADME study, all eligible participants were accommodated under controlled conditions at a metabolic research facility (Covance Clinical Pharmacology Inc., Wisconsin) until completion of the study. Based on the compliance of the first part of the study, 8 participants were selected to participate in the ^14C-EC ADME study. During the ^14C-EC ADME study (Fig. 1B.), volunteers received a low-flavanol, standardized high-fiber diet, and were encouraged to maintain an adequate level of hydration (water ad libitum). Volunteers were asked to fast for 8 h before the initiation of the study and for at least 4 h after the intake of the ^14C-EC test drink (water ad libitum). Venous blood samples were taken using Vacutainer collection tubes, containing potassium EDTA at 0 h (just prior to ^14C-EC ingestion), and at 0.25, 0.5, 1, 1.5, 2, 2.5, 3, 4, 6, 8, 10, 12, 16, 24, 36, and 48 h after test drink consumption. Plasma was obtained by whole blood centrifugation at 2000 × g for 15 min at 5 °C, separated into aliquots and stored at −80 °C until analysis. All urine and feces from the time just prior to the consumption of the test drink were collected at different time intervals for radioactivity and metabolite profiling. Clinical parameters and laboratory evaluations of participants were assessed at screening, on study day –1, and after completing the study, as detailed in Supplementary Methods.
(§3) Samples were processed as described previously[18] and analyzed by HPLC-MS^2 in conjunction with an on-line HPLC-radioactivity monitor as described in SI Materials and Methods. Identification of metabolites involved comparing the retention time with authentic standards and MS^2 fragmentation patterns (Supplementary Methods). Quantification of metabolites in urine was based on HPLC radioactivity peak area (limit of quantification: 10^3 dpm). Due to the low levels of radioactivity, quantification in plasma was based on targeted HPLC-MS^2 using standard curves obtained with authentic standards (Supplementary Methods).
HPLC-MS identifications of radiolabeled [2-14C](−)-epicatechin metabolites in urine Urine was analyzed with radioactivity and mass spectrometry (MS) detection using a 250 mm x 4.6 mm i.d. 5 µm Luna Phenyl-Hexyl column (Phenomenex, Macclesfield, UK) […]
formic acid. Metabolite identification was performed by 1) co-chromatography of metabolites with reference compounds and a comparison of their MS fragmentation patterns 2, 2) by comparing m/z fragmentation patterns with earlier in-house observed […]
patterns to databases of metabolites reported in earlier polyphenol feeding studies5-7.
Supplementary Table S2, which also provides information on the MSI MI (Metabolite Standards Initiative – Metabolites Identification) level, a confidence level for identification where level 1 stands for fully elucidated (i.e., by comparison with a standard) and level 2 for a well characterized, but not yet fully structurally elucidated 8

[3] = Metabolite profiling and pharmacokinetics in plasma (targeted HPLC-MS2); type: in vivo, humans; conditions: human, oral 60 mg 14C-EC
Description: as §2, §3
Data are expressed as mean values ± standard error, or as otherwise specified. Pharmacokinetic parameters were calculated using non-compartmental analysis with WinNonlin (Pharsight Corporation, Version 5.2).
5-20% acetonitrile in 0.1 % formic acid. Supplementary Table S2 provides details of HPLC retention times and the m/z values that were monitored.
Supplementary Table S2. Detection of (−)-epicatechin metabolites. HPLC retention times and selected reaction monitoring ions used for the HPLC-MS analysis of (−)-epicatechin metabolites in plasma. […]
Structurally related (-)-epicatechin metabolites in humans: assessment using de novo chemically synthesized authentic standards. Free Radic Biol Med 52, 1403- […]
3 Borges, G. et al. Bioavailability of multiple components following acute ingestion of a polyphenol-rich juice drink. Mol Nutr Food Res 54 Suppl 2, S268-277, […]
4 Stalmach, A. et al. Absorption, metabolism, and excretion of green tea flavan-3-ols in humans with an ileostomy. Mol Nutr Food Res 54, 323-334,

[4] = SREM profile in plasma after intragastric 14C-EC, rat; type: in vivo, Sprague-Dawley rats; conditions: 30 min after 2 mg/kg BW intragastric 14C-EC
Description: as §1

Detection in plasma [1]: No unmetabolized EC was detected
Ingested 14C-EC absorbed via the colon / lower intestine ([2]; from urinary RFM excretion): ≈ 70% and 70%
Ingested 14C-EC absorbed from the small intestine ([2]; from urinary SREM excretion): 20%
Levels of unmetabolized EC in plasma and urine [3]: below the limits of detection
SMILES: Oc1cc(O)c2c(c1)O[C@H](c1ccc(O)c(O)c1)[C@H](O)C2 [^14C-EC, [2-^14C](−)-epicatechin]
Detection in plasma [4]: No unmetabolized EC and sulfated SREMs were detected
